The nature of data set [1]: Cytotoxicity activity against Swiss Webster mouse primary hepatocytes assessed as reduction in cell viability after 72 hrs by cell-titer-glo assay. It counts as cell-based, Hepatocyte.
Data set [2] is described as follows: Cytotoxicity activity against African green monkey Vero cells assessed as reduction in cell viability after 72 hrs by cell-titer-glo assay. The data set is classed as cell-based. The settings on record: chlorocebus sabaeus.
In data set [3] the test system is Trypanosoma cruzi. The data set is described as follows: Trypanocidal activity against Trypanosoma cruzi Y trypomastigotes infected in monkey LLC-MK2 cells after 24 hrs by cell-titer-glo assay. The data set is classed as functional, organism-based. Conditions: for IC50: LLC-MK2, 24 h; for IC90: LLC-MK2, in Primates, 24 h.
The subject of data set [4] is Trypanosoma cruzi. The data set can be described thus: Trypanocidal activity against infected Swiss Webster mouse derived bloodstream form of Trypanosoma cruzi Y after 24 hrs by cell-titer-glo assay. The data set is classed as functional, organism-based.
A short description of data set [5]: Therapeutic index, ratio of CC50 for African green monkey Vero cells to IC50 for Trypanosoma cruzi Y trypomastigotes infected in monkey LLC-MK2 cells. The data set is classed as toxicity, cell-based. The settings on record: read-out: Ratio CC50/IC50.
Data set [6] in a line: Therapeutic index, ratio of CC50 for African green monkey Vero cells to IC50 for infected Swiss Webster mouse derived bloodstream form of Trypanosoma cruzi Y. It counts as toxicity. The settings on record: read-out: Ratio CC50/IC50.
Data set [7] deals with Trypanosoma cruzi. The data set can be described thus: Trypanocidal activity against Trypanosoma cruzi Brazil trypomastigotes infected in monkey LLC-MK2 cells after 24 hrs by luminescent assay. The data set is classed as functional, organism-based.
The test system of data set [8] is Trypanosoma cruzi. The data set can be described thus: Trypanocidal activity against Trypanosoma cruzi CL trypomastigotes infected in monkey LLC-MK2 cells after 24 hrs by luminescent assay. The data set is classed as functional, organism-based. The settings on record: CL Brener.
Data set [9] has as its system Trypanosoma cruzi. The data set is described as follows: Trypanocidal activity against Trypanosoma cruzi Dm28c trypomastigotes infected in monkey LLC-MK2 cells after 24 hrs by luminescent assay. It counts as functional, organism-based.
Data set [10] concerns Trypanosoma cruzi. The data set is described as follows: Trypanocidal activity against Trypanosoma cruzi Dm28c intracellular amastigotes infected in African green monkey Vero cells after 72 hrs. It counts as functional, organism-based.
Data set [11] can be described thus: Therapeutic index, ratio of CC50 for African green monkey Vero cells to IC50 for Trypanosoma cruzi Dm28c intracellular amastigotes infected in African green monkey Vero cells. It counts as toxicity, cell-based. Conditions: read-out: Ratio CC50/IC50.
For data set [12], the system named is Trypanosoma cruzi. The data set can be described thus: Trypanocidal activity against Trypanosoma cruzi Y intracellular amastigotes infected in Swiss Webster mouse cardiomyocytes after 72 hrs. The data set is classed as functional, organism-based.
The nature of data set [13]: Cytotoxicity against Swiss Webster mouse cardiomyocytes after 72 hrs. On the set-up: species or system Cardiac Muscle Cell.
Data set [14] is described as follows: Therapeutic index, ratio of CC50 for Swiss Webster mouse cardiomyocytes to IC50 for Trypanosoma cruzi Y intracellular amastigotes infected in Swiss Webster mouse cardiomyocytes. It counts as toxicity, cell-based. The settings on record: read-out: Ratio CC50/IC50.

For the molecule `O=C(Cn1ccnc1[N+](=O)[O-])NCc1ccccc1` [BENZNIDAZOLE], the CC50 at 72 h was more than 500 µM in [1], 366 µM in [2] and more than 500 µM in data set [13]. Also, the IC50 with Trypanosoma cruzi [3] was 29.8 µM; in the data set with Trypanosoma cruzi [4] it was 18.1 µM; with Trypanosoma cruzi [7] (LLC-MK2, 24 h) it was 93.3 µM; with Trypanosoma cruzi [8] (LLC-MK2, 24 h) it was 69.3 µM; with Trypanosoma cruzi [9] (LLC-MK2, 24 h), 24.7 µM; in the data set on Trypanosoma cruzi [10] it was 4.39 µM. Besides, the IC50 with Trypanosoma cruzi [12] is 1.1 µM. Besides, the IC90 in the data set with Trypanosoma cruzi [3] is 68.5 µM; with Trypanosoma cruzi [4], more than 100 µM; in the data set on Trypanosoma cruzi [7] (LLC-MK2, in Primates, 24 h), more than 100 µM; in the data set with Trypanosoma cruzi [8] (LLC-MK2, in Primates, 24 h), more than 100 µM; in the data set with Trypanosoma cruzi [9] (LLC-MK2, in Primates, 24 h) it was 92.3 µM; with Trypanosoma cruzi [10], 24.9 µM. For the same molecule, the selectivity ratio in data set [5] was 12.2; in data set [6] it was 20.2; in [11], 83.2; in [14], more than 455.

For the molecule `O=C1C=C(O)C(=O)c2ccccc21` [LAWSONE], the CC50 at 72 h in data set [1] was more than 500 µM; in data set [2], 214 µM. Also, the values for the IC50 in the data set with Trypanosoma cruzi [3], with Trypanosoma cruzi [4] and in the data set on Trypanosoma cruzi [10] were more than 100 µM, more than 100 µM and 89 µM, respectively. In addition, the IC90 in the data set with Trypanosoma cruzi [3], in the data set on Trypanosoma cruzi [4] and with Trypanosoma cruzi [10] was more than 100 µM throughout. Besides, the selectivity ratio in [11] turned out to be 2.39.

The values are drawn from ChEMBL document CHEMBL4251625, “Efficacy of 2-hydroxy-3-phenylsulfanylmethyl-[1,4]-naphthoquinone derivatives against different Trypanosoma cruzi discrete type units: Identification of a promising hit compound” (Eur J Med Chem, 2018).
